Test results: patent US10596145B2, “Heterocyclic flavone derivatives, compositions, and methods related thereto” (Emory University, priority 2012, dated 2020)
“Also recorded” adds a separate entry of the source.

Assays:
TrkB [1] = molecular target: T1, TrkB (Rattus norvegicus, UniProt Q63604); assay: TrkB activation in primary cortical neurons (immunoblotting); assay type: cell-based; conditions: 500 nM, 15 min
T1 construct: endogenous in cells; host or cells: primary cortical neurons from E17 rat embryos
T1 sequence (Q63604 32-821): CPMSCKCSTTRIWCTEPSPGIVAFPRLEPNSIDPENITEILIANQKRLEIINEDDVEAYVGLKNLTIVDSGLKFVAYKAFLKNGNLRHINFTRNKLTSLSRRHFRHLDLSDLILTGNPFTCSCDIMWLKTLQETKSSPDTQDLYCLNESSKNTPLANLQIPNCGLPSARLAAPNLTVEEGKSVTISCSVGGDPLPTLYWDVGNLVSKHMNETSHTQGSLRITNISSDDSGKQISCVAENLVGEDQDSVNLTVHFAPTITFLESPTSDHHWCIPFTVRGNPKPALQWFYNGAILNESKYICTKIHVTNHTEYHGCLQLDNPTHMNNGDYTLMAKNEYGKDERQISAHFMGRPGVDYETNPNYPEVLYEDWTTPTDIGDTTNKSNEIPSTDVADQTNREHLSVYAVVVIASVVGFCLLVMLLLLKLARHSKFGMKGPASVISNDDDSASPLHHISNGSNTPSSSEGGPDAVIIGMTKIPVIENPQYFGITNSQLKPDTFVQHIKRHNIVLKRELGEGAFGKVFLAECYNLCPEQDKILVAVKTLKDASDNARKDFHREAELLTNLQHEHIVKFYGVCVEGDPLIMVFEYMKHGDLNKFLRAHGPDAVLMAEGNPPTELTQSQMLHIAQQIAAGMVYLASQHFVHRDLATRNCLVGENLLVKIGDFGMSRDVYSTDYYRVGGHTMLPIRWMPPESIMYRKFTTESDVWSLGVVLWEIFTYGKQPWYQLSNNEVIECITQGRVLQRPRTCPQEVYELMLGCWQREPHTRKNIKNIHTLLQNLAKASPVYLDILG
Experimental: Primary cortical cultures from E17 rat embryos were treated with 500 nM of various synthetic flavone derivatives for 15 min. The cell lysates (20 μg) were analyzed by the immunoblotting.
Rat primary neurons were treated with 500 nM various indicated compounds from 15 min. The neuronal lysates ([…]) were analyzed with various antibodies.
500 nM of different synthetic compounds were added to DIV 7 neurons for 15 min. The cell lysates were analyzed by immunoblotting with indicated p-Akt 473 antibodies.
Replacing the 3′-dimethylamino group or 4′-morpholino group was tested for TrkB agonistic activity. To compare the TrkB activation by these compounds, primary cortical cultures were prepared and treated them with 500 nM of various compounds for 15 min and collected the cell lysates. […] The p-Akt ELISA analysis results were similar to the TrkB activation pattern (FIG. 2B, lower panel).

TrkB [2] = molecular target: T2, TrkB (Mus musculus, UniProt P15209); assay: TrkB phosphorylation in mouse brain after oral administration (immunoblotting, immunohistochemistry); assay type: in vivo
T2 construct: from tissue; host or cells: mouse brain (hippocampus, cortex), C57BL/6
T2 sequence (P15209 32-821): as the sequence (Q63604 32-821) above, with M3T, T9S, T10A, I32V, K63R, G84S, T153M, I185L, T394S, N770S counted along it
Experimental: One mg/kg of various indicated compounds were orally administrated into C57 BL/6J mice and TrkB phosphorylation and its downstream signaling cascades including Akt and MAPK in the hippocampus of mouse brain were analyzed by immunoblotting at 4 h. […] The downstream p-Akt and p-MAPK activity coupled to the TrkB activation patterns.
Time course assay with 4′-dimethylamino-7,8-imidazole flavone. One mg/kg of compound (i) and compound (m) were orally administrated into C57 BL/6J mice and TrkB phosphorylation and its downstream signaling cascades including Akt in mouse brain were analyzed by immunoblotting at various time points. TrkB activation by compound m peaked at 4 h, whereas the maximal TrkB activation by compound i in mouse brain occurred at 1-2 h. Arrows indicate the p-TrkB in mature glycosylated or unglycosylated forms (top panels). The downstream Akt activation pattern tightly correlated with the upstream TrkB activation.
(§1) Male C57BL/6 mice aged of two months were administrated orally with 4′-DMA-7,8-DHF derivatives at a single dose of 1 mg/kg for 4 h. The control mice were injected with saline. The mice were sacrificed and brains were homogenated and ultracentrafuged. The supernatant (40 μg) was employed for SDS-PAGE and immunoblotting analysis with indicated antibodies, respectively. Male C57BL/6 mice aged of two months were administrated orally with compound (i) or (m) at the dose of 5 mg/kg/day each and compound o or p at the dose of 2.5 mg/kg/day each for 21 days. BrdU (100 mg/kg) was i. p. injected two hours before the TrkB agonist treated animals were sacrificed and the hippocampal section lysates were analyzed by immunoblotting with p-TrkB and total TrkB antibodies, p-AKT ELISA.
Brain tissues were fixed in 4% paraformaldehyde overnight followed by paraffin embedding. Sections of 6 μm were cut. For immunohistochemical staining, brain sections were deparaffinized in xylene and rehydrated in graded alcohols. Endogenous peroxidase activity was blocked by 3% hydrogen peroxide for 5 min and all slides were boiled in 10 mM sodium citrate buffer (pH 6.0) for 10 min. Phosphorylated TrkB 816 and TrkB were detected using specific antibodies. Paraffin section were deparaffinized in xylene and rehydrated gradient ethanol solution. Samples were boiled in 10 mM sodium citrate buffer for 20 min for antigen retrieval purpose. Brain sections were incubated with anti-TrkB (BD Biosciences, San Jose, Calif.) 1:50, p-TrkB 1:300 dilution. Secondary antibody was applied using anti-rabbit-Alexa 594 (red), anti-mouse-fluorescein isothiocyanate (FITC) (green). DAPI (blue) was used for nuclear staining.

Akt = assay: Downstream Akt activation in mouse brain (p-Akt immunoblotting, p-Akt 473 ELISA); assay type: in vivo; conditions: 1 mg/kg oral
Experimental: PathScan Phospho-Akt1 (Ser473) Sandwich ELISA kit was purchased from Cell Signaling (Cat. #7160). 100 μl sample in sample diluent (supplied in the kit) was added to each well and incubated overnight at 4° C. After 4× wash with 200 ul wash buffer (supplied in the kit), 100 ul/well detection antibody was added and incubated for 1 hour at 37° C. After 4× wash, 100 μl of HRP-linked secondary antibody (supplied in the kit) was added and incubated for 30 minutes at 37° C. After a final wash, 100 μl of TMB substrate was added to each well and incubated for 10 minutes at 37° C. The reaction was stopped by adding 100 μl/well stop solution. Record the values of each well using microplate reader at 450 nm and 650 nm. The optical density was determined by the subtraction of the reading at 650 nm from the reading s at 450 nm.
as §1

TrkA = molecular target: T3, TrkA (Mus musculus, UniProt Q3UFB7); assay: TrkA activation in mouse brain (anti-p-TrkA 794 immunoblotting); assay type: in vivo; conditions: 5 mg/kg/day oral, chronically treated mice
T3 construct: from tissue; host or cells: mouse brain lysates of chronically treated C57BL/6J mice
T3 sequence (Q3UFB7 34-799): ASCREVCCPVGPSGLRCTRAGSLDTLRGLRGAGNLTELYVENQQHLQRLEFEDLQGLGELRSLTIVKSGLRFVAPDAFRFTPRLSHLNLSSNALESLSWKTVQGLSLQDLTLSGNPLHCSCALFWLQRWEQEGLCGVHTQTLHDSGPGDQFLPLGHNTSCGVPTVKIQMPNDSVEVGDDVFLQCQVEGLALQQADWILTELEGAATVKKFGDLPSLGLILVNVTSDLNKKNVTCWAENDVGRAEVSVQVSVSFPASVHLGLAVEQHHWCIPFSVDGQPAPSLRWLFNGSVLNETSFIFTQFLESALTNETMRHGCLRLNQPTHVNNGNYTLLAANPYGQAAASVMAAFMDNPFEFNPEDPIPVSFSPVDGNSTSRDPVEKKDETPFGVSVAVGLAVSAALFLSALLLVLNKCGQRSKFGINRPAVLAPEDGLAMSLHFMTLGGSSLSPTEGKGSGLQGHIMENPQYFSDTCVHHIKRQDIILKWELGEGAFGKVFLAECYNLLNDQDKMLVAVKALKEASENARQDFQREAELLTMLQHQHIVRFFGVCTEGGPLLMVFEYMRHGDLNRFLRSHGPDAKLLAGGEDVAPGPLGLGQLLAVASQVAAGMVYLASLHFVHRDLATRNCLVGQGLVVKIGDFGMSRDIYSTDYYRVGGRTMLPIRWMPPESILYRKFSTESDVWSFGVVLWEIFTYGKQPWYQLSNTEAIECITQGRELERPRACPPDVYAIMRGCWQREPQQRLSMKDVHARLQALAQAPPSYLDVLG
Experimental: The brain lysates from above chronically treated mice were analyzed by immunoblotting with anti-p-TrkA 794 and p-TrkB 816.
as §1

C57BL/6J mice [3] = assay: Forced swim test; assay type: in vivo, mouse; conditions: 5 mg/kg oral once a day, 3 weeks
Experimental: Male C57BL/6J mice (6 mice/group) were orally administrated by gavage with 5 mg/kg compound (m) or compound (i) and vehicle solvent saline for 21 days and subjected to a forced swim test (6 min, immobility recorded in the last 4 min). Data are presented as mean±SEM. (n=6, ***P<0.0001 vs vehicle, Student t-test).
Forced swim test. Male C57BL/6J mice (8 mice/group) were orally administrated by gavage with 2.5 mg/kg compound o or compound p and vehicle solvent saline for 21 days and subjected to a forced swim test (6 min, immobility recorded in the last 4 min). […] Data are presented as mean±SEM.
Adult male mice (2-3 months old) were randomly submitted to a forced swim test without a preswim. Test compounds were orally administrated by gavage for 21 days. The mice were allowed to adapt to the test room for 2 days. The mice were placed in a clear glass cylinder with a diameter of 16 cm, half-filled with clear water at 24° C.

C57BL/6J mice [4] = assay: Locomotor activity assay; assay type: in vivo, mouse; conditions: 5 mg/kg oral, 21 days, tested at day 22
Experimental: The above drug-treated mice were subjected locomotor activity at day 22. […] Data are presented as mean±SEM.
Locomotor activity was assessed using an automated system (San Diego Instruments, La Jolla, Calif., USA) with photobeams that recorded ambulations (consecutive beam breaks). Drug-treated mice were placed in the locomotor chambers, and their activity was recorded for 2 h with 30 min interval.

CN(C)c1ccc(-c2cc(=O)c3ccc4nc[nH]c4c3o2)cc1 [compound m, 8-(4-(dimethylamino)phenyl)chromeno[7,8-d]imidazol-6(1H)-one]
TrkB activation (p-TrkB immunoblotting) (TrkB [1]): stronger effect in triggering TrkB activation than compound 4′-DMA-7,8-DHF | TrkB activation (p-TrkB immunoblotting) (TrkB [1]; listed as 4′-Dimethylamino-7,8-imidazole flavone): stronger TrkB stimulatory activity than compound a | TrkB activation in mouse brain (TrkB [2]; 1 mg/kg oral, hippocampus, at 4 h): robustly activated TrkB; also recorded: strongest TrkB stimulatory effect | time at which TrkB activation fades away (TrkB [2]; 1 mg/kg oral, time course): 16 h | time of peak TrkB activation in mouse brain (TrkB [2]; 1 mg/kg oral, time course): 4 h | TrkB phosphorylation after chronic treatment (TrkB [2]; 5 mg/kg/day oral, 3 weeks, cortex and hippocampus): escalated TrkB phosphorylation; also recorded: stronger effect than compound i | downstream p-Akt and p-MAPK signalings (Akt; at 4 h): strongly activated | p-Akt signal elevation compared to the control at peak (Akt; at 8 h): about 250% | time of peak p-Akt activation (p-Akt ELISA) (Akt; time course): 8 h | TrkA activation in mouse brain (TrkA): not TrkA | immobility in forced swim test (C57BL/6J mice [3]): decreased the immobility in FST; also recorded: significantly reduced the immobility; also recorded: more robust than that of compound i | locomotor activity (C57BL/6J mice [4]): highly augmented the locomotor activity; also recorded: substantially augmented locomoter activity; also recorded: significantly increased the locomotor activity
